This assay relates to MX-1 breast xenograft, intrarenal, nude mice, tumor weight. Put plainly: NCI In Vivo Anticancer Drug Screen. Data for tumor model Human Mammary Carcinoma MX-1 Xenograft (intrarenal inoculation) in NU/NU BALB/C (nude) mice. The settings on record: endpoint: mean tumor weight change, higher = larger tumour. Summed up:
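Transplantable tumors established in mice; animals dosed with compound or vehicle; survival or tumor size then recorded. Result reported as treated (T) divided by vehicle control (C).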

Where [1] appears, read: dose: 300.0 mg/kg/injection, schedule: Q04DX003 (ip), vehicle: Klucel (hydroxypropylcellulose) (HPC).
Setting [2] is: dose: 37.5 mg/kg/injection, schedule: Q04DX003 (sc), vehicle: saline with Tween-80.
Where [3] appears, read: dose: 50.0 mg/kg/injection, schedule: Q04DX003 (ip), vehicle: suspension in saline.

Each structure is given as a SMILES string. Where “and” joins values, the source holds several entries; their conditions need not be identical. Identical values can stand only once. Records with an inconclusive call do not appear.

Take `C=C1C(O)C2(O)OCC34C(CC5C(C)=CC(=O)C(O)C5(C)C23)OC(=O)C(OC(=O)C/C=C(\C)CCCCC)C14` (stereo not drawn): the T/C runs as follows: (dose: 1.5 mg/kg/injection, schedule: Q04DX003 (ip), vehicle: saline + alcohol) 69 % of control; (dose: 3.0 mg/kg/injection, schedule: Q04DX003 (ip), vehicle: saline + alcohol) 87 % of control; (dose: 6.0 mg/kg/injection, schedule: Q04DX003 (ip), vehicle: saline + alcohol) 47 % of control; (dose: 12.0 mg/kg/injection, schedule: Q04DX003 (ip), vehicle: saline + alcohol) 43 % of control.

As for `COC(=O)C1(F)C(=O)NC(=O)NC1OC` (stereo not drawn), the T/C is 85 % of control (dose: 150.0 mg/kg/injection, schedule: Q04DX003 (ip), vehicle: Klucel (hydroxypropylcellulose) (HPC)); 93 % of control under setting [1]; 43 % of control (dose: 600.0 mg/kg/injection, schedule: Q04DX003 (ip), vehicle: Klucel (hydroxypropylcellulose) (HPC)).

For the molecule `O=C1N[C@H]2[C@H](CS[C@H]2CCCCC(=O)N(CCP(c2ccccc2)c2ccccc2)CCP(c2ccccc2)c2ccccc2)N1`, the T/C is, setting by setting: (dose: 600.0 mg/kg/injection, schedule: Q04DX003 (sc), vehicle: Klucel (hydroxypropylcellulose) (HPC)) 108 % of control; (dose: 1200.0 mg/kg/injection, schedule: Q04DX003 (sc), vehicle: Klucel (hydroxypropylcellulose) (HPC)) 97 % of control; (dose: 2400.0 mg/kg/injection, schedule: Q04DX003 (sc), vehicle: Klucel (hydroxypropylcellulose) (HPC)) 115 % of control.

For `CN1CCN(c2ccc([N+](=O)[O-])c3no[n+]([O-])c23)CC1`, the T/C under setting [2] was 117 % of control; the T/C (dose: 75.0 mg/kg/injection, schedule: Q04DX003 (sc), vehicle: saline with Tween-80) was 83 % of control; the T/C (dose: 150.0 mg/kg/injection, schedule: Q04DX003 (sc), vehicle: saline with Tween-80) was 72 % of control.

For `Oc1cccc2ccccc12`, where the note is “dose: 150.0 mg/kg/injection, schedule: Q04DX003 (ip), vehicle: water”, the T/C was 81 % of control.

For the molecule `C/C=C(\C)c1cc(=O)c2c(C)cc3c(c2o1)C(=O)c1c(O)c(C2CC(C)(N(C)C)C(OC(C)=O)C(C)O2)cc(C2CC(N(C)C)C(O)C(C)O2)c1C3=O` (stereo not drawn), the T/C by setting is: (dose: 2.5 mg/kg/injection, schedule: Q04DX003 (sc), vehicle: saline) 91 % of control; (dose: 40.0 mg/kg/injection, schedule: Q04DX003 (sc), vehicle: saline) 39 % of control and 43 % of control.

On to `COC1=C(C)C(=O)C2=C(C1=O)C(CO)N1C(C#N)C3CC4C(C1C2N1CCOC41)N3C` (stereo not drawn), for which the T/C (dose: 0.9 mg/kg/injection, schedule: Q04DX003 (ip), vehicle: acid diluted with saline) is 55 % of control; the T/C (dose: 1.25 mg/kg/injection, schedule: Q04DX003 (ip), vehicle: acid diluted with saline) was 35 % of control; the T/C (dose: 1.5 mg/kg/injection, schedule: Q04DX003 (ip), vehicle: acid diluted with saline) was 19 % of control; the T/C (dose: 2.5 mg/kg/injection, schedule: Q04DX003 (ip), vehicle: acid diluted with saline) is 17 % of control and 19 % of control; the T/C (dose: 2.5 mg/kg/injection, schedule: Q04DX003 (ip), vehicle: saline + alcohol) was 50 % of control; the T/C (dose: 5.0 mg/kg/injection, schedule: Q04DX003 (ip), vehicle: saline + alcohol) was 42 % of control.

As to `Nc1ccc(Cn2ccc3c4c(N)nc(N)nc4ccc32)cc1`, the T/C is 80 % of control (dose: 18.75 mg/kg/injection, schedule: Q04DX003 (sc), vehicle: saline with Tween-80) and 75 % of control under setting [2].

As for `CC(=O)C[n+]1ccccc1Sc1ccc(Cl)cc1`, the T/C (dose: 25.0 mg/kg/injection, schedule: Q04DX003 (ip), vehicle: saline with Tween-80) is 66 % of control; the T/C (dose: 50.0 mg/kg/injection, schedule: Q04DX003 (ip), vehicle: saline with Tween-80) was 64 % of control; the T/C (dose: 100.0 mg/kg/injection, schedule: Q04DX003 (ip), vehicle: saline with Tween-80) was 89 % of control.

In the case of `c1nnc(NCNc2nncs2)s1`, the T/C was 89 % of control under setting [3]; 59 % of control (dose: 100.0 mg/kg/injection, schedule: Q04DX003 (ip), vehicle: suspension in saline); 78 % of control (dose: 200.0 mg/kg/injection, schedule: Q04DX003 (ip), vehicle: suspension in saline); 65 % of control (dose: 400.0 mg/kg/injection, schedule: Q04DX003 (ip), vehicle: suspension in saline).

Regarding `Cc1ccc(/C=C/C(=O)/C=C/c2ccc(C)o2)o1`, the T/C was 94 % of control (dose: 100.0 mg/kg/injection, schedule: Q04DX003 (ip), vehicle: DMSO); 112 % of control (dose: 200.0 mg/kg/injection, schedule: Q04DX003 (ip), vehicle: DMSO); 107 % of control (dose: 800.0 mg/kg/injection, schedule: Q04DX003 (ip), vehicle: DMSO).

On to `Cn1nnc2c(C(N)=O)ncn2c1=O`, for which the T/C is 68 % of control (dose: 75.0 mg/kg/injection, schedule: Q04DX003 (ip), vehicle: suspension in saline); 24 % of control (dose: 150.0 mg/kg/injection, schedule: Q04DX003 (ip), vehicle: saline); 15 % of control (dose: 150.0 mg/kg/injection, schedule: Q04DX003 (ip), vehicle: suspension in saline); -68 % of control (dose: 300.0 mg/kg/injection, schedule: Q04DX003 (ip), vehicle: saline); -100 % of control (dose: 300.0 mg/kg/injection, schedule: Q04DX003 (ip), vehicle: suspension in saline).

For `Cn1c(=S)sc2nc3ccccc3n2c1=S`, the T/C (dose: 30.0 mg/kg/injection, schedule: Q04DX003 (ip), vehicle: saline with Tween-80) is 165 % of control and the T/C (dose: 120.0 mg/kg/injection, schedule: Q04DX003 (ip), vehicle: saline with Tween-80) is 42 % of control.

Regarding `COC(=O)C12OCC34C(CC5C(C)C6=CC(=O)OC6=CC5(C)C3C(O)C1O)OC(=O)C(O)C24` (stereo not drawn), the T/C was 75 % of control (dose: 0.5 mg/kg/injection, schedule: Q04DX003 (ip), vehicle: Klucel (hydroxypropylcellulose) (HPC)); 77 % of control (dose: 1.0 mg/kg/injection, schedule: Q04DX003 (ip), vehicle: Klucel (hydroxypropylcellulose) (HPC)); 69 % of control (dose: 2.0 mg/kg/injection, schedule: Q04DX003 (ip), vehicle: Klucel (hydroxypropylcellulose) (HPC)); 45 % of control (dose: 4.0 mg/kg/injection, schedule: Q04DX003 (ip), vehicle: Klucel (hydroxypropylcellulose) (HPC)).

Turning to `O=C(O)c1ccc(C(=O)O)c(C(=O)O)c1.[NH-]C1CCCCC1[NH-].[Pt+2]`, the T/C by setting is: (dose: 3.12 mg/kg/injection, schedule: Q01DX010 (sc), vehicle: sodium bicarbonate) 74 % of control; (dose: 6.25 mg/kg/injection, schedule: Q01DX010 (sc), vehicle: sodium bicarbonate) 40 % of control; (dose: 12.5 mg/kg/injection, schedule: Q01DX010 (sc), vehicle: sodium bicarbonate) 6 % of control.

In the case of `CN1C2CCC1C(Br)C(=O)C2` (stereo not drawn), the T/C (dose: 100.0 mg/kg/injection, schedule: Q04DX003 (ip), vehicle: saline) is 100 % of control and the T/C (dose: 200.0 mg/kg/injection, schedule: Q04DX003 (ip), vehicle: saline) was 66 % of control.

On to `O=c1c(O)c(O)c1=O.[NH2-].[NH2-].[NH2-].[NH2-].[NH2-].[Ru+5]`, for which the T/C by setting is: (dose: 12.5 mg/kg/injection, schedule: Q04DX003 (ip), vehicle: suspension in saline) 98 % of control; (dose: 25.0 mg/kg/injection, schedule: Q04DX003 (ip), vehicle: suspension in saline) 74 % of control; under setting [3], 60 % of control.

Consider `COc1cc(Cc2nccc3cc(OC)c(OC)cc23)c(C(C)=O)cc1OC`, for which the T/C (dose: 300.0 mg/kg/injection, schedule: Q04DX003 (sc), vehicle: saline) is 54 % of control; the T/C (dose: 600.0 mg/kg/injection, schedule: Q04DX003 (sc), vehicle: saline) was 68 % of control; the T/C (dose: 1200.0 mg/kg/injection, schedule: Q04DX003 (sc), vehicle: saline) is 48 % of control.

With `C=Cc1cc(OC)c2c(c1)c(=O)oc1c2cc(OC)c2c(O)ccc(C3OC(C(C)O)C(O)C3O)c21` (stereo not drawn), the T/C is, setting by setting: (dose: 37.5 mg/kg/injection, schedule: Q04DX003 (ip), vehicle: Klucel (hydroxypropylcellulose) (HPC)) 91 % of control; (dose: 75.0 mg/kg/injection, schedule: Q04DX003 (ip), vehicle: Klucel (hydroxypropylcellulose) (HPC)) 51 % of control and 70 % of control; under setting [1], 28 % of control and 29 % of control.

Turning to `Cc1c(O)/c(=C\O)c2nc3c(=O)ccc(C(=O)NCCN(C)C)c3[nH]c2c1=O`, the T/C reads like this: (dose: 50.0 mg/kg/injection, schedule: Q04DX003 (ip), vehicle: other) 77 % of control; (dose: 100.0 mg/kg/injection, schedule: Q04DX003 (ip), vehicle: other) 100 % of control; (dose: 200.0 mg/kg/injection, schedule: Q04DX003 (ip), vehicle: other) 44 % of control.

For `CCc1nc(N)nc(N)c1-c1ccc(Cl)c(N=[N+]=[N-])c1`, the T/C (dose: 67.0 mg/kg/injection, schedule: Q04DX003 (ip), vehicle: water) is 85 % of control.

For the origin of these results see PubChem BioAssay AID298 (DTP/NCI, 2004).
